This is an account of results in ChEMBL document CHEMBL4808211, “Exploration and Biological Evaluation of Basic Heteromonocyclic Propanamide Derivatives as SARDs for the Treatment of Enzalutamide-Resistant Prostate Cancer” (J Med Chem, 2021).

This test deals with MR49F. Put plainly: animal or person. Particulars: Mus musculus, po, 672 h, read-out: TGI.

Description: Antitumor activity against human MR49F cells xenografted in NOD SCID NSG mouse assessed as tumor growth inhibition at 60 mg/kg/day, po measured twice weekly for 28 days relative to control

As for `C[C@](O)(Cn1cc(-c2ccc(F)cc2)nn1)C(=O)Nc1ccc(C#N)c(C(F)(F)F)c1`, the inhibition in vivo at 60 mg/kg/day was determined as 95%.
